The text below walks through data of ChEMBL document CHEMBL5500407, “Designing Chromane Derivatives as α2A-Adrenoceptor Selective Agonists via Conformation Constraint” (J Med Chem, 2024).

The target in data set [1] is T1, Alpha-2A adrenergic receptor (Homo sapiens, UniProt P08913).
T1 sequence (P08913 whole entry): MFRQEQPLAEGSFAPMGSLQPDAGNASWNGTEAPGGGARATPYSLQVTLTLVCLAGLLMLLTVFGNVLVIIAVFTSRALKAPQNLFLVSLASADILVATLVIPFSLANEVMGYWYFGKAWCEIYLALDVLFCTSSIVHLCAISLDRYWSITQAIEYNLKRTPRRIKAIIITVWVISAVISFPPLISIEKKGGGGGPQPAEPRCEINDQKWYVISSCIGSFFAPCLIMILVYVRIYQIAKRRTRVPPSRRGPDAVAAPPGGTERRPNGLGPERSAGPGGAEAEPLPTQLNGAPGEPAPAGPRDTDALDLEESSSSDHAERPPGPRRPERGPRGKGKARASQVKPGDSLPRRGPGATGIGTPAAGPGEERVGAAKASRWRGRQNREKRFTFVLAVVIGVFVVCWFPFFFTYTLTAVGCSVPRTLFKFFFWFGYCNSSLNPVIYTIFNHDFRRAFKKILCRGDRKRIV
Description: Agonist activity at alpha2A-adrenoceptor (unknown origin) expressed in CHO-alpha2-AR-PKAcatEGFP cells assessed as intracellular cAMP concentration by measuring PKA translocation after 15 mins incubation by PKA redistribution assay

Data set [2] concerns the target T2, Alpha-1A adrenergic receptor (Homo sapiens, UniProt P35348).
T2 sequence (P35348 whole entry): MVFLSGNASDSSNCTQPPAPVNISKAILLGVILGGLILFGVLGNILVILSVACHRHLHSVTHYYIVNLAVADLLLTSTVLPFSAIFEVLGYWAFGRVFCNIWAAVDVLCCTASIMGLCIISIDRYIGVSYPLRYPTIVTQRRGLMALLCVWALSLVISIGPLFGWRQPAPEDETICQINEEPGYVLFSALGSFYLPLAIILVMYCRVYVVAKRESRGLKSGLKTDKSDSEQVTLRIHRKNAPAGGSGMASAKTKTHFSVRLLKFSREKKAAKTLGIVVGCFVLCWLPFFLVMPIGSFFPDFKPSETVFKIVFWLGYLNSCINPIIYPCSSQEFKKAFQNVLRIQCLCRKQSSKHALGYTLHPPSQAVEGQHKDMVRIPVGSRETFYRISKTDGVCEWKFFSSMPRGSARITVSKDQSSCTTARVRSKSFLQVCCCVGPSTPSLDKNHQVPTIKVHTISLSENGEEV
Description: Binding affinity to human alpha1A-adrenoceptor

Data set [3] deals with T3, Alpha-1D adrenergic receptor (Homo sapiens, UniProt P25100).
T3 sequence (P25100 whole entry): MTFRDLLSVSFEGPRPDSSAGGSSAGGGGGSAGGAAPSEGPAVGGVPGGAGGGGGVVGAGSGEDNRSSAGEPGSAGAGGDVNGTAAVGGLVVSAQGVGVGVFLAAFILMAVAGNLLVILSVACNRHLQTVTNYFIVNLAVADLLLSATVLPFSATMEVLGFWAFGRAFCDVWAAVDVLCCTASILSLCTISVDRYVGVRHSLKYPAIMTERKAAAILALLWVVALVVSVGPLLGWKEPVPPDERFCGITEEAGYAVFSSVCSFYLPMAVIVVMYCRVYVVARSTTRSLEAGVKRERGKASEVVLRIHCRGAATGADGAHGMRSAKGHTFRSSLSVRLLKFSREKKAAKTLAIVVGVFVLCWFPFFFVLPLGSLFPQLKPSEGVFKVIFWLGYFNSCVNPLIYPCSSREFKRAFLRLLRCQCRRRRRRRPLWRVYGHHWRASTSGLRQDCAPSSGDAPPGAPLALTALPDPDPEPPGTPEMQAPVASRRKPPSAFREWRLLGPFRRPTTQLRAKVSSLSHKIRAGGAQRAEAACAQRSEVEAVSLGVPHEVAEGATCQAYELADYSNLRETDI
As to the kind of experiment: Binding affinity to human alpha1D-adrenoceptor.

Data set [4] addresses T4, Alpha-1B adrenergic receptor (Homo sapiens, UniProt P35368).
T4 sequence (P35368 whole entry): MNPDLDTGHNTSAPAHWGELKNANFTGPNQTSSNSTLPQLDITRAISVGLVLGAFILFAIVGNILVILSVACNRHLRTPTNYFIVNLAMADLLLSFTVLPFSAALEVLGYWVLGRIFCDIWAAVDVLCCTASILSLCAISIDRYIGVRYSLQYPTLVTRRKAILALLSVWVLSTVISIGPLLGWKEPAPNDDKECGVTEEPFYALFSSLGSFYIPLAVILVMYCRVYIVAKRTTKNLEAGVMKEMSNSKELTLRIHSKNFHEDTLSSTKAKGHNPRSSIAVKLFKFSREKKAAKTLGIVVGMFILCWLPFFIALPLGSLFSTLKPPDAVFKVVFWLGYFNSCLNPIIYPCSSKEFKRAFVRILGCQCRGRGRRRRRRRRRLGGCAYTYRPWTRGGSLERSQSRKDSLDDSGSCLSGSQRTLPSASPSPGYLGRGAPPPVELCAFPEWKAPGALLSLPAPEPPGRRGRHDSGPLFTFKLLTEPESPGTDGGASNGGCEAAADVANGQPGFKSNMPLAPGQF
As to the kind of experiment: Binding affinity to human alpha1B-adrenoceptor.

Data set [5] deals with T5, Alpha-2C adrenergic receptor (Homo sapiens, UniProt P18825).
T5 sequence (P18825 whole entry): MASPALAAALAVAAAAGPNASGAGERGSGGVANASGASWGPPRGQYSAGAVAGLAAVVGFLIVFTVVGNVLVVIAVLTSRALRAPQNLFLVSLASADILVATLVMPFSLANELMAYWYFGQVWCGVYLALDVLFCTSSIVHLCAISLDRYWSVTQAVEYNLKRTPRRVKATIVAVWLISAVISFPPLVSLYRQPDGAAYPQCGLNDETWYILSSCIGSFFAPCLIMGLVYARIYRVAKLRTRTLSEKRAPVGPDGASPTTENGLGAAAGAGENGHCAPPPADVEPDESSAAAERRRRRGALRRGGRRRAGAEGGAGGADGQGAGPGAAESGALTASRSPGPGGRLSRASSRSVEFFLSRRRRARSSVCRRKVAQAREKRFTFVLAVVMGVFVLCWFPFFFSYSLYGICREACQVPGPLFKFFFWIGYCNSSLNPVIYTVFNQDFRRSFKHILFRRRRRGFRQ
Description: Binding affinity to human alpha2C-adrenoceptor

For data set [6], the target named is T6, Alpha-2B adrenergic receptor (Homo sapiens, UniProt P18089).
T6 sequence (P18089 whole entry): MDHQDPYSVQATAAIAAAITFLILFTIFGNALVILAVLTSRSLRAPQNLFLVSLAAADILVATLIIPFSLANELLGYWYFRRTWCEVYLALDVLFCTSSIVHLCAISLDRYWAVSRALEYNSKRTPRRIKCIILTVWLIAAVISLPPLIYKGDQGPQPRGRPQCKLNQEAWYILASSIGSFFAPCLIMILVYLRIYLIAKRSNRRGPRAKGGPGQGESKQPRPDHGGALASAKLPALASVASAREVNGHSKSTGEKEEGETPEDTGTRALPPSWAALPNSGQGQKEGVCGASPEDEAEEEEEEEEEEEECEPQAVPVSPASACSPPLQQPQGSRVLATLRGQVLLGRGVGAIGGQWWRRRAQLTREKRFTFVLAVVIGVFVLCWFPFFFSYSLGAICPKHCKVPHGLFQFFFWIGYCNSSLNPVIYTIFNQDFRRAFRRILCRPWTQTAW
Description: Binding affinity to human alpha2B-adrenoceptor

The target of data set [7] is T1, Alpha-2A adrenergic receptor. This is another data set of the same source.
Description: Binding affinity to human alpha2A-adrenoceptor
Data set [8] deals with T6, Alpha-2B adrenergic receptor. As to the kind of experiment: Agonist activity at alpha2B-adrenoceptor (unknown origin) expressed in U2OS-EGFP-NFAT2-alpha2B-AR cells assessed as increase in intracellular calcium level measured after 15 mins incubation by Micro automated microscopy. The class given is functional, cell-based. Background: A change in cytosolic calcium serves as a functional read-out for many receptors and channels.

Data set [9] is described as follows: Selectivity index, ratio of EC50 for alpha2A-adrenoceptor (unknown origin) to EC50 for alpha2B-adrenoceptor (unknown origin).
The target in data set [10] is T5, Alpha-2C adrenergic receptor. As to the kind of experiment: Agonist activity at alpha2C-adrenoceptor (unknown origin) expressed in CHO-alpha2C-PKAcatEGFP cells assessed as increase in intracellular calcium level measured after 15 mins incubation by Micro automated microscopy. The class given is functional, cell-based.
A short description of data set [11]: Selectivity index, ratio of EC50 for alpha2A-adrenoceptor (unknown origin) to EC50 for alpha2C-adrenoceptor (unknown origin).
The nature of data set [12]: Selectivity index, ratio of EC50 for alpha2A-adrenoceptor (unknown origin) to EC50 for alpha1A-adrenoceptor (unknown origin).
The target of data set [13] is T2, Alpha-1A adrenergic receptor. As to the kind of experiment: Agonist activity at alpha1A-adrenoceptor (unknown origin) expressed in HEK293T cells assessed as fluorescence intensity measured after 30 mins by IP-one homogeneous time-resolved fluorescence assay. The class given is functional, cell-based.
Data set [14] is described as follows: Metabolic stability in mouse liver microsomes assessed as elimination half life. The class given is ADME, Microsome. A general note: Liver microsomes are vesicles of endoplasmic reticulum, rich in cytochrome P450 enzymes.
Data set [15] in a line: Metabolic stability in mouse liver microsomes assessed as intrinsic clearance. The class given is ADME, Microsome. The note with it: read-out: CLH.

What is called EC50 is the concentration that produces a half-maximal response. In the case of `Cc1ccc2c(c1)C(c1c[nH]cn1)=CCO2`, the concentration giving a half-maximal response (EC50) in data set [1] came out at 896 nM.
Broadly, the Ki is the dissociation constant of the complex between target and ligand, obtained from inhibition or displacement. A low value points to a stronger hold on the target. In the case of `N=C(N)NC(=O)Cc1c(Cl)cccc1Cl` [GUANFACINE], the Ki was 4680 nM in [2], 11700 nM in data set [3] and 135000 nM in [4].
In turn, `Cc1[nH]cnc1C1=CCOc2c(Cl)cccc21` gave a 50% effective concentration (EC50) in data set [1] of more than 5000 nM.
Same read-out and setting: for `Clc1cccc2c1OCC=C2c1cnc[nH]1` the value was 12.8 nM; for `COc1ccc2c(c1)C(c1c[nH]cn1)=CCO2`, more than 5000 nM; for `Brc1ccc2c(c1)OCCC2c1c[nH]cn1` (centres undefined), 165 nM.
`Brc1ccc2c(c1)C(c1c[nH]cn1)=CCO2` registered an EC50 in [1] of more than 5000 nM.
As to `COc1cccc2c1CCOC2C1=NCCN1` (centres undefined) [TASIPIMIDINE], the Ki in [5] was more than 1000 nM; in [2] it was 3090 nM; in data set [6] it was more than 1000 nM; in data set [7], 8.71 nM; in data set [3] it was 3090 nM; in data set [4], 525 nM.
Compound `Clc1cc(Cl)c2c(c1)C(c1c[nH]cn1)=CCO2` had an EC50 in data set [1] of 4630 nM.
The same measure, in the same setting: for `Clc1ccc2c(c1)C(c1cnc[nH]1)=CCO2` the value was 899 nM.
As for `NC1=N[C@]2(CCc3cccc(Cl)c3C2)OC1`, the Ki in [5] was 0.316 nM; in [2], 3.98 nM; in data set [6], 0.251 nM; in [7], 0.316 nM; in data set [3], 25.1 nM; in data set [4] it was 20 nM.
`Clc1cccc2c1OCCC2c1c[nH]cn1` (centres undefined): the concentration for a half-maximal effect (EC50) came to 24.1 nM in data set [8], 2.36 nM in data set [1], 35.8 nM in [10] and 4.05 nM in data set [13]. Further, the Selectivity Index was found to be 10 in [9], 15 in data set [11] and 1.7 in data set [12].
For `C[C@H](c1c[nH]cn1)c1cccc2ccccc12`, the Ki in data set [5] was 17.8 nM; in data set [2], 447 nM; in data set [6], 35.5 nM; in [7], 15.5 nM.
As a reminder, the half-life is the time needed for the level to fall by half in the phase considered. Consider `Cc1cccc2c1OCC=C2c1c[nH]cn1`, for which the half-life in data set [14] was determined as 4.87 min. The half-maximal effective concentration (EC50) in [8] is 100 nM; in data set [1] it was 2.11 nM; in data set [10], 49.6 nM; in [13], 29.8 nM. Besides, the values for the Selectivity Index in data set [9], in data set [11] and in data set [12] were 47, 24 and 14, respectively. Moreover, the microsomal CLint in [15] stood at 284 µL/min/mg.
With `Fc1ccc2c(c1)OCC=C2c1cnc[nH]1`, the EC50 in data set [1] is more than 5000 nM.
On to `Clc1cccc2c(Nc3ccncc3)cccc12`, for which, in [7], the inhibition constant Ki was 8.32 nM.
`Cc1ccc2c(c1Br)OCC=C2c1c[nH]cn1` showed a concentration for a half-maximal effect (EC50) in data set [1] of 104 nM.
`Fc1cccc2c1OCCC2c1c[nH]cn1` (centres undefined): it took 56.9 nM to reach a half-maximal effect in data set [1] (EC50).
As to `Clc1ccc2c(c1)C(c1c[nH]cn1)CCO2` (centres undefined), it took 64.6 nM to reach a half-maximal effect in [1] (EC50).
Turning to `Cc1cccc2c1OCCC2c1c[nH]cn1` (centres undefined), the half-life in [14] amounted to 36.8 min. Moreover, the EC50 in [8] was 45.8 nM; in data set [1], 2.09 nM; in data set [10], more than 5000 nM; in data set [13], 2.42 nM. The Selectivity Index in [9] is 22; in [11], more than 2000; in [12], 1.2. Also, the microsomal CLint in [15] stood at 37.7 µL/min/mg.
As for `Clc1cc(Br)cc2c1OCC=C2c1c[nH]cn1`, the concentration giving a half-maximal response (EC50) in [1] was more than 5000 nM.
On to `Fc1cc(Br)c2c(c1)C(c1c[nH]cn1)=CCO2`, for which the EC50 in [8] is 83.4 nM; in data set [1], 1.14 nM; in data set [10], 27.9 nM; in [13] it was 48.4 nM. Besides, the Selectivity Index was found to be 73 in data set [9], 24 in data set [11] and 42 in data set [12].
For the compound `Brc1ccc2c(c1)C(c1c[nH]cn1)CCO2` (centres undefined), the concentration for a half-maximal effect (EC50) in [1] was 446 nM.
Still for that read-out and setting: for `Cc1ccc2c(c1)C(c1c[nH]cn1)CCO2` (centres undefined) the value was 2030 nM; for `Brc1ccc2c(c1)OCC=C2c1c[nH]cn1`, more than 5000 nM.
The same measure, in the same setting: for `Fc1cccc2c1OCC=C2c1c[nH]cn1` the value was 77.3 nM; for `Fc1ccc2c(c1)OCCC2c1cnc[nH]1` (centres undefined), 80.9 nM.
`Cc1cccc2c1OCC=C2c1nc[nH]c1C` came in with an EC50 in data set [1] of more than 5000 nM.
In the case of `C1=C(c2ccc3c(c2)CC3)CNCC1`, the affinity in data set [6] corresponds to a Ki of 60.3 nM. This lies in the double-digit nanomolar range.
Take `Clc1cccc(Cl)c1N=C1NCCN1` [CLONIDINE]: the Ki in data set [3] was 2570 nM; in [4] it was 7410 nM.
